Assays:
[1] = biological target: T1, human FGFR3 V555M enzyme (cytoplasmic domain carrying V555M mutation) (Homo sapiens, UniProt P22607, V555M); assay: FGFR3 V555M mobility shift assay (enzymatic assay); format: biochemical; details: 30 μM ATP, 45 minutes at 30° C.; read-out: FGFR3 V555M Caliper
T1 construct: cytoplasmic domain carrying V555M mutation, from Cama Biosciences; purchased Cama Biosciences (so in the source)
Description: FGFR3 V555M Mobility Shift Assay (Enzymatic Assay)
In a final reaction volume of 25 μL, 0.04 ng/μL human FGFR3 V555M enzyme (cytoplasmic domain carrying V555M mutation, from Cama Biosciences) was incubated with 30 μM ATP, 1 μM FL-peptide 30 substrate and 250 nL of testing compound (1% DMSO final) in assay buffer (100 mM HEPES pH 7.4, 10 mM MgCl2, 0.003% Brij35, 1 mM DTT). After incubation for 45 minutes at 30° C. the reaction was stopped with 10 μL of 0.5M EDTA pH 8.0, and then 25 μL of reaction mixture was transferred to reading plate and measured on Caliper EZ reader II. The substrate-product conversion rate was used as raw data for normalization and concentration-response curve (10 dose points with 4× serial dilution, starting with 10 μM) was plotted using Prism to calculate IC50 (M), pIC50 (−log IC50) and HillSlope value.

[2] = biological target: T2, NIH/3T3 cells overexpressing FGFR3 WT-TACC3 fusion protein (Homo sapiens, UniProt P22607); assay: NIH/3T3 FGFR3 WT-TACC3 cell proliferation assay; format: cell-based; details: 72-hr incubation, CellTiter Glo; read-out: NIH/3T3 FGFR3 WT-TACC3 CTG
T2 construct: NIH/3T3 FGFR3 WT-TACC3 CTG; other: 72-hr incubation, CellTiter Glo; fused on or other part: C-terminal part of TACC3 (coiled-coil) fused behind the FGFR3 kinase domain; Q9Y6A5 (Transforming acidic coiled-coil-containing protein 3)
Description: NIH/3T3 FGFR3 WT-TACC3 Cell Proliferation Assay
(§1) In day 1, 90 μL of cell suspension (NIH/3T3 cells overexpressing FGFR3 WT-TACC3 fusion protein) (total 30,000 cells per well in growth medium (DMEM containing 1% Glutamax, 10% FBS and 1% Pen/Strep)) was seeded in a 96-well plate and then incubated overnight at 37° C. and 5% CO2. In day 2, 10 μL of growth medium containing 10-fold stock solution of testing compound was added into cell cultures (9 dose points with 4× serial dilution, starting with 10 μM, 0.1% DMSO final). After 72-hr incubation at 37° C. and 5% CO2, in day 5 a volume of 50 μL CellTiter Glo (CTG) reagent was added into cell-containing 96-well plate and the plate was incubated at room temperature for 10 minutes before RLUs (relative light unit) were measured on a microplate reader with luminescence detection module. The RLU value was normalized to survival % and concentration-response curve was plotted using Prism to calculate IC50 (M), pIC50 (−log IC50) and HillSlope value.

[3] = tested on: NIH/3T3 cells transfected with control vector; assay: NIH/3T3 mock cell proliferation assay (counter assay, general toxicity); format: cell-based; details: Mus musculus, NIH3T3; 72-hr incubation, CellTiter Glo; read-out: NIH/3T3 MOCK CTG
Description: NIH/3T3 Mock Cell Proliferation Assay
as §1, with “cells transfected with the same control vector as in the above two proliferation assays)” for “cells overexpressing FGFR3 WT-TACC3 fusion protein)”, “with 3×” for “with 4×”, “with 30” for “with 10”, “μM, 0.3%” for “μM, 0.1%”

[4] = biological target: T3, NIH/3T3 cells overexpressing FGFR3 V555M-TACC3 fusion protein (Homo sapiens, UniProt P22607, V555M, cells depend on it); assay: NIH/3T3 FGFR3 V555M-TACC3 cell proliferation assay; format: cell-based; details: 72-hr incubation, CellTiter Glo; read-out: NIH/3T3 FGFR3 V555M-TACC3 CTG
T3 construct: NIH/3T3 FGFR3 V555M-TACC3 CTG; other: 72-hr incubation, CellTiter Glo; fused on or other part: C-terminal part of TACC3 (coiled-coil) fused behind the FGFR3 kinase domain; Q9Y6A5 (Transforming acidic coiled-coil-containing protein 3)
Description: NIH/3T3 FGFR3 V555M-TACC3 Cell Proliferation Assay
as §1, with “V555M-TACC3” for “WT-TACC3”

T3 sequence (P22607 whole entry V555M, the tested form may be a part): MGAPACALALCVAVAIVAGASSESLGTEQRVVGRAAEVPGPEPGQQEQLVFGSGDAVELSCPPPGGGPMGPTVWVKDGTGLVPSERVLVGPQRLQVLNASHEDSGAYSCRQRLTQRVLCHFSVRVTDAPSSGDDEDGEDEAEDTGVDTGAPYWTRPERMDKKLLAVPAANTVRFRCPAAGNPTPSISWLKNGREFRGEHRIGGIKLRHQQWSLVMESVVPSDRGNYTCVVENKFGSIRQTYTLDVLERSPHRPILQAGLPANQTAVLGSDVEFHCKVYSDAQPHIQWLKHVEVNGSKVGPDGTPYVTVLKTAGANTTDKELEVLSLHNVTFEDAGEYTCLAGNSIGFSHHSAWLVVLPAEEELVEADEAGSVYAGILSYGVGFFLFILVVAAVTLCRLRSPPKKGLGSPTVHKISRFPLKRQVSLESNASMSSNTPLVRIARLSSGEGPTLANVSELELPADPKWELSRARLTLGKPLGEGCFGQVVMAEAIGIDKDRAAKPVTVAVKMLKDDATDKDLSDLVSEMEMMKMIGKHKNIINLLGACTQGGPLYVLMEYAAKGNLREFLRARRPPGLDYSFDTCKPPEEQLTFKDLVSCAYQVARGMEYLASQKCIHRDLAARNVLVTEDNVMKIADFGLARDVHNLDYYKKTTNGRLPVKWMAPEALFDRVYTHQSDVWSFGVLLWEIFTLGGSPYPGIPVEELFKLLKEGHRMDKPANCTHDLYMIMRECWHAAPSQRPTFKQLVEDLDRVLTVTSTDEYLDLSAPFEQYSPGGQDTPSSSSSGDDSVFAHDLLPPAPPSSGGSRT
T1 sequence (P22607 397-806 V555M limits assumed): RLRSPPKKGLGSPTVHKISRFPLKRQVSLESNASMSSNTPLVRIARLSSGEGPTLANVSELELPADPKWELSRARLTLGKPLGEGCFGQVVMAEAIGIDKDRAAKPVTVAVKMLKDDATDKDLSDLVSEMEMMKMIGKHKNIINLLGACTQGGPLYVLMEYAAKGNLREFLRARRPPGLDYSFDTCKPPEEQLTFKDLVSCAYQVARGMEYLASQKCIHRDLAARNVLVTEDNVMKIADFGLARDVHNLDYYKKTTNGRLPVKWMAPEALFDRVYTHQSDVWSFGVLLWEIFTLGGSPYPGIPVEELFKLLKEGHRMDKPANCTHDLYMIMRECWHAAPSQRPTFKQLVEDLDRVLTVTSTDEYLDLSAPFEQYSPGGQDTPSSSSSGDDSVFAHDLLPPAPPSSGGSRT
T2 sequence (P22607 whole entry, change not shown, the tested form may be a part): as the sequence (P22607 whole entry V555M, the tested form may be a part) above, with M555V counted along it

For `C[C@H](Nc1c(-c2nc3cnc(N4CCOCC4)cc3[nH]2)c(=O)[nH]c2ccsc12)c1ncccn1` [Compound 2, (S)-6-(6-Morpholino-1H-imidazo[4,5-c]pyridin-2-yl)-7-((1-(pyrimidin-2-yl)ethyl)amino)thieno[3,2-b]pyridin-5(4H)-one], which IC50 [1] is on record?
The IC50 was 0.23 nM.

And the GI50 [2]?
The GI50 was 0.85 nM.

And the IC50 [3]?
Its IC50 is 891 nM.

And the GI50 [4]?
The GI50 was 1.24 nM.
